Experimental data published in ChEMBL document CHEMBL1201862, “PubChem BioAssay data set” (2004).
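The compound was tested at five concentrations on cells cultured in 96-well plates, with a 48-hour exposure period. The concentration for 50% growth inhibition is given as GI50.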 Activity calls are given as the source filed them. Rule as the data show it: active = GI50 up to about 1.1 µM and inactive = higher.

Legend:
Test in all cases: DTP human tumour cell line panel, 48 h
SK-MEL-2 = system: SK-MEL-2
SF-268 = system: SF-268
SNB-75 = system: SNB-75
MDA-MB-435 = system: MDA-MB-435
HT-29 = system: HT-29
K562 = system: K562
SK-MEL-28 = system: SK-MEL-28
NCI-H460 = system: NCI-H460
RPMI-8226 = system: RPMI-8226
SW-620 = system: SW-620
HCT-15 = system: HCT-15
HOP-62 = system: HOP-62
786-0 = system: 786-0
A549 = system: A549
NCI/ADR-RES = system: NCI/ADR-RES
SR = system: SR
SK-OV-3 = system: SK-OV-3
U-251 = system: U-251
SF-295 = system: SF-295
NCI-H226 = system: NCI-H226
BT-549 = system: BT-549
LOX IMVI = system: LOX IMVI
M14 = system: M14
RXF 393 = system: RXF 393
MCF7 = system: MCF7
UO-31 = system: UO-31
HCC 2998 = system: HCC 2998
CAKI-1 = system: CAKI-1
DU-145 = system: DU-145
SK-MEL-5 = system: SK-MEL-5
OVCAR-8 = system: OVCAR-8
NCI-H23 = system: NCI-H23
OVCAR-3 = system: OVCAR-3
Hs-578T = system: Hs-578T
HL-60 = system: HL-60
OVCAR-4 = system: OVCAR-4
IGROV-1 = system: IGROV-1
NCI-H522 = system: NCI-H522
COLO 205 = system: COLO 205
MOLT-4 = system: MOLT-4
T47D = system: T47D
PC-3 = system: PC-3
SNB-19 = system: SNB-19
SF-539 = system: SF-539
SN12C = system: SN12C
CCRF-CEM = system: CCRF-CEM
Malme-3M = system: Malme-3M
UACC-257 = system: UACC-257
KM12 = system: KM12
EKVX = system: EKVX
HCT-116 = system: HCT-116
TK-10 = system: TK-10
UACC-62 = system: UACC-62
MDA-MB-231 = system: MDA-MB-231
MDA-N = system: MDA-N
A498 = system: A498
OVCAR-5 = system: OVCAR-5
ACHN = system: ACHN
HOP-92 = system: HOP-92

SMILES: CCN(CC)CCN(/C(=N/c1ccccc1)N1CCOCC1)c1ccccc1
- GI50 (SK-MEL-2): > 100 µM (inactive)
- GI50 (SF-268): > 100 µM (inactive)
- GI50 (SNB-75): > 100 µM (inactive)
- GI50 (MDA-MB-435): 28.8 µM (inactive)
- GI50 (HT-29): 42.1 µM (inactive)
- GI50 (K562): > 100 µM (inactive)
- GI50 (SK-MEL-28): > 100 µM (inactive)
- GI50 (NCI-H460): > 100 µM (inactive)
- GI50 (RPMI-8226): > 100 µM (inactive)
- GI50 (SW-620): > 100 µM (inactive)
- GI50 (HCT-15): > 100 µM
- GI50 (HOP-62): 74.6 µM (inactive)
- GI50 (786-0): > 100 µM (inactive)
- GI50 (A549): > 100 µM (inactive)
- GI50 (NCI/ADR-RES): > 100 µM (inactive)
- GI50 (SR): 50.6 µM (inactive)
- GI50 (SK-OV-3): > 100 µM (inactive)
- GI50 (U-251): > 100 µM (inactive)
- GI50 (SF-295): > 100 µM (inactive)
- GI50 (NCI-H226): > 100 µM (inactive)
- GI50 (BT-549): > 100 µM (inactive)
- GI50 (LOX IMVI): 44.6 µM (inactive)
- GI50 (M14): > 100 µM (inactive)
- GI50 (RXF 393): > 100 µM (inactive)
- GI50 (MCF7): 89.3 µM (inactive)
- GI50 (UO-31): > 100 µM (inactive)
- GI50 (HCC 2998): > 100 µM (inactive)
- GI50 (CAKI-1): > 100 µM (inactive)
- GI50 (DU-145): > 100 µM (inactive)
- GI50 (SK-MEL-5): > 100 µM (inactive)
- GI50 (OVCAR-8): > 100 µM (inactive)
- GI50 (NCI-H23): 70 µM (inactive)
- GI50 (OVCAR-3): > 100 µM (inactive)
- GI50 (Hs-578T): > 100 µM (inactive)
- GI50 (HL-60): 18.2 µM (inactive)
- GI50 (OVCAR-4): 95.7 µM (inactive)
- GI50 (IGROV-1): 48.4 µM (inactive)
- GI50 (NCI-H522): > 100 µM (inactive)
- GI50 (COLO 205): 39.4 µM (inactive)
- GI50 (MOLT-4): > 100 µM (inactive)
- GI50 (T47D): > 100 µM (inactive)
- GI50 (PC-3): > 100 µM (inactive)
- GI50 (SNB-19): > 100 µM (inactive)
- GI50 (SF-539): > 100 µM (inactive)
- GI50 (SN12C): > 100 µM (inactive)
- GI50 (CCRF-CEM): > 100 µM (inactive)
- GI50 (Malme-3M): > 100 µM (inactive)
- GI50 (UACC-257): > 100 µM (inactive)
- GI50 (KM12): > 100 µM (inactive)
- GI50 (EKVX): > 100 µM (inactive)
- GI50 (HCT-116): 9.89 µM (inactive)
- GI50 (TK-10): > 100 µM (inactive)
- GI50 (UACC-62): > 100 µM (inactive)
- GI50 (MDA-MB-231): > 100 µM (inactive)

SMILES: COc1ccc(Cc2c(-c3ccc(C)cc3)n[nH]c(=O)c2C2C(=O)N(c3ccccc3)N=C2c2ccccc2)cc1 (configuration not stated)
- GI50 (SK-MEL-2): 21.9 µM (inactive)
- GI50 (SF-268): 38.9 µM (inactive)
- GI50 (SNB-75): 23.9 µM (inactive)
- GI50 (MDA-MB-435): 20.3 µM (inactive)
- GI50 (HT-29): 31.7 µM (inactive)
- GI50 (K562): 28 µM (inactive)
- GI50 (SK-MEL-28): 33 µM (inactive)
- GI50 (NCI-H460): 30.5 µM (inactive)
- GI50 (RPMI-8226): 42 µM (inactive)
- GI50 (SW-620): 37.7 µM (inactive)
- GI50 (HCT-15): 42.9 µM
- GI50 (HOP-62): 40.1 µM (inactive)
- GI50 (MDA-N): 24.4 µM (inactive)
- GI50 (786-0): 35.7 µM (inactive)
- GI50 (A549): 31.4 µM (inactive)
- GI50 (NCI/ADR-RES): 25.1 µM (inactive)
- GI50 (SR): 37.1 µM (inactive)
- GI50 (SK-OV-3): 52.8 µM (inactive)
- GI50 (U-251): 34.8 µM (inactive)
- GI50 (SF-295): 24.3 µM (inactive)
- GI50 (NCI-H226): 29.4 µM (inactive)
- GI50 (LOX IMVI): 20.6 µM (inactive)
- GI50 (M14): 26.9 µM (inactive)
- GI50 (RXF 393): 26.7 µM (inactive)
- GI50 (MCF7): 44.5 µM (inactive)
- GI50 (UO-31): 39.7 µM (inactive)
- GI50 (HCC 2998): 27.6 µM (inactive)
- GI50 (CAKI-1): 37.1 µM (inactive)
- GI50 (DU-145): 43.7 µM (inactive)
- GI50 (SK-MEL-5): 20.7 µM (inactive)
- GI50 (OVCAR-8): 30.3 µM (inactive)
- GI50 (NCI-H23): 25.8 µM (inactive)
- GI50 (A498): 30.2 µM (inactive)
- GI50 (OVCAR-3): 19 µM (inactive)
- GI50 (Hs-578T): 31.6 µM (inactive)
- GI50 (HL-60): 39.3 µM (inactive)
- GI50 (OVCAR-5): 33 µM (inactive)
- GI50 (ACHN): 30.9 µM (inactive)
- GI50 (OVCAR-4): 48.2 µM (inactive)
- GI50 (IGROV-1): 32.1 µM (inactive)
- GI50 (HOP-92): 28 µM (inactive)
- GI50 (NCI-H522): 44.3 µM (inactive)
- GI50 (COLO 205): 20.7 µM (inactive)
- GI50 (MOLT-4): 23.1 µM (inactive)
- GI50 (T47D): > 65.6 µM (inactive)
- GI50 (PC-3): 26.7 µM (inactive)
- GI50 (SNB-19): 36.1 µM (inactive)
- GI50 (SF-539): 25.1 µM (inactive)
- GI50 (SN12C): 30.9 µM (inactive)
- GI50 (CCRF-CEM): 32.2 µM (inactive)
- GI50 (Malme-3M): 24.1 µM (inactive)
- GI50 (UACC-257): 29.3 µM (inactive)
- GI50 (KM12): 22.3 µM (inactive)
- GI50 (EKVX): 26.8 µM (inactive)
- GI50 (HCT-116): 21.8 µM (inactive)
- GI50 (TK-10): 29.2 µM (inactive)
- GI50 (UACC-62): 20 µM (inactive)
- GI50 (MDA-MB-231): 35.6 µM (inactive)
